By Ki is commonly meant the dissociation constant of the complex between target and ligand, obtained from inhibition or displacement. In general, Km refers to the concentration of substrate that gives half-maximal velocity. As a reminder, the Kd is the free concentration of one partner at which half of the binding sites on the other are occupied at equilibrium, for simple one-to-one binding.

Data on 7 compounds can be found in article PMC10615754 (Molecular Psychiatry, 2023).

Data set [1] has as its target T1, DAT (Mus musculus, UniProt Q61327).
T1 construct: from tissue; host or cells: striatum of male SERT+/- mice
Nature of the data set: Competition binding of [3H]WIN35,428 to DAT in mouse striatal homogenates.
Protocol: (§1) Thus, in the current experiments, male constitutive SERT+/- mice weighing 25-30g were used, 3 per assay. […] Mice were euthanized by cervical dislocation without use of anesthesia to prevent anesthetic-induced attenuation of transporter binding sites. Whole hippocampi or striatum were harvested and placed in 30 ml of ice-cold buffer specific to each assay.
(§2) Tissue Collection and Preparation: Mice were humanely euthanized by cervical dislocation and decapitated without anesthesia to collect fresh brain tissues without compromising transporter binding properties. Striatum from each mouse were placed in a round 50 ml polycarbonate tube (Nalge Nunc, Rochester, NY, USA) containing 30 mM sodium phosphate and 0.32 M sucrose for DAT binding as in Reith and Coffey^16. […] All tissues were homogenized at 26,000 RPM for 1 min with a Polytron tissue homogenizer (Brinkman Instruments, Westbury, NY, USA). […] The supernate was discarded, and the pellet re-suspended in 25 ml buffer on ice using a Potter Elvehjem 10 ml glass and teflon homogenizer. The homogenate was re-centrifuged for 10 min at 36,000 x g.
The final pellet was re-suspended in 30 mM sodium phosphate and 0.32 M sucrose pH 7.4 at 4°C, and binding assays were carried out in duplicate for 2 hours at 4°C.
Labeled homogenates were captured through filtration under vacuum onto glass fiber filters pre-soaked in 0.5% polyethyleneimine (Sigma) on a Brandel tissue harvester (Gaithersburg, MD). Filters were washed twice more with 4 ml of buffer.
(§3) Data Analysis: Binding data were analyzed using non-linear regression curve fitting with GraphPad Prism (La Jolla, CA, USA).

Data set [2] addresses T2, hOCT3 (Homo sapiens, UniProt O75751).
T2 construct: expressed in transfected cells
T2 sequence (O75751 1-556): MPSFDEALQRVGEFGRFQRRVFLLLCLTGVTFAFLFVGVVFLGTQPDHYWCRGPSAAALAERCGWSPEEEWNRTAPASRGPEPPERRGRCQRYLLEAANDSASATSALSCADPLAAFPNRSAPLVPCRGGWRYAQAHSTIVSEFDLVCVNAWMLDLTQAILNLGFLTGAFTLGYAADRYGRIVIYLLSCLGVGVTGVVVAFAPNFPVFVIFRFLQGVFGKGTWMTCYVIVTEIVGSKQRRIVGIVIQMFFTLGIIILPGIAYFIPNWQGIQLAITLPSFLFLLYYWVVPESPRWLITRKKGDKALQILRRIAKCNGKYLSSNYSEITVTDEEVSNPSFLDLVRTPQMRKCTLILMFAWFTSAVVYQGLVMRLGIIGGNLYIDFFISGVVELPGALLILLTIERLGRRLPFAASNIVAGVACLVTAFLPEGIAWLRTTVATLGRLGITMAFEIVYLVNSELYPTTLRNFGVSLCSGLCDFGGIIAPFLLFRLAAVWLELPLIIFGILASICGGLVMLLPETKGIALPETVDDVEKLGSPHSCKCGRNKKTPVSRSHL
Kind of data set: Inhibition of [3H]MPP+ uptake into HEK293 cells stably expressing hOCT3. Type of data set: cell-based.
Protocol: Mechanically detached HEK293 cells grown to confluence in 4-5 ml flasks were suspended in 3-4 ml of media in a 15 ml polypropylene conical tube.
Cells were harvested on a Brandel 48 well harvester by vacuum filtration onto glass fiber filter strips (Brandel, Gaithersburg, MD, USA) pre-soaked in a 1% polyethalineamine saline solution. […] Protein concentration of the cell suspension was determined after solubilization in 1N NaOH against known concentrations of bovine serum albumen with Bradford reagent as for mouse brain homogenates.
Data Analysis: Experiments were performed in triplicate. Percent of total binding was calculated, and uptake kinetics determined with GraphPad Prism.

For data set [3], the target named is T3, NET (Mus musculus, UniProt O55192). Set-up: from tissue; host or cells: hippocampus of male SERT+/- mice; method as in earlier work. As to conditions: known Kd from prior studies, used to calculate Ki; ref 20 (SI); read-out: Kd of hot ligand at NET; cited from earlier work.
T3 sequence (O55192 whole entry): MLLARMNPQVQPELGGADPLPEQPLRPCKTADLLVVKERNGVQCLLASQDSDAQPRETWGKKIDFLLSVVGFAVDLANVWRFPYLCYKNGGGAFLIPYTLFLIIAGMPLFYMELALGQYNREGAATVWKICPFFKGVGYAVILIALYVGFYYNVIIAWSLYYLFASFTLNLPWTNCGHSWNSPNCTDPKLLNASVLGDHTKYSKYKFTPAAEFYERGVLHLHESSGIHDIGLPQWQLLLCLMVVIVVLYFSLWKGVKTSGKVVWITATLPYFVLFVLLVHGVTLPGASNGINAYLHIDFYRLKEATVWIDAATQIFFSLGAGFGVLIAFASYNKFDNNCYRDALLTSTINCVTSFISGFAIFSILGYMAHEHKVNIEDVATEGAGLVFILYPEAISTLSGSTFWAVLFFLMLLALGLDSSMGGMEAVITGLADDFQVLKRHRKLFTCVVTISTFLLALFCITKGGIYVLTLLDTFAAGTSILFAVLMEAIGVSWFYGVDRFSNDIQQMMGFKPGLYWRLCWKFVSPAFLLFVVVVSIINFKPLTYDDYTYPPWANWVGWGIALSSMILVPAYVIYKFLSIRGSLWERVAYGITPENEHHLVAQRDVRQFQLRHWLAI
The subject of data set [4] is OCT3+/+ and OCT3-/- mice. Kind of data set: Sensitization of locomotor activity during CPP conditioning sessions. As to conditions: for Locomotor sensitization, first vs. 4th session Mean Difference: sexes pooled, ethanol 1 g/kg and/or cocaine […]. It counts as in vivo.
Data set [5] has as its system OCT3. Further details: method as in PMID 29773909, PMID 16581093. As to conditions: at concentrations lower than 100 µM; cited from earlier work.
Data set [6] concerns the target hSERT (Homo sapiens, UniProt P31645). As to conditions: 10 µM cocaine, 10 µM APP+.
In data set [7] the target is T2, hOCT3. Further details: method as in PMID 29773909. As to conditions: previously shown; cited from earlier work.
Data set [8] addresses hDAT (Homo sapiens, UniProt Q01959). As to conditions: 10 µM APP+.
Data set [9] has as its system DA clearance in dorsal striatum. Nature of the data set: In vivo high-speed chronoamperometry of DA clearance in dorsal striatum. As to conditions: for EC50, half maximally effective amount to inhibit DA clearance (T80) / Emax, maximal inhibition of DA clearance (percent increase in T80): 2 min post-intrastriatal application; for Emax, maximal inhibition of DA clearance (percent increase in T80): 4-parameter logistic fit; for percent change in T20-60 value from baseline / percent change in peak amplitude of DA signal from baseline: dorsal striatum, 2 minutes following administration, mean and SEM; for Effect on DA clearance time (T80): intrastriatal application, ethanol ~0.5-10 mM, cocaine 1-10 µM at recording site, 2 min after drug.

The target in data set [10] is T2, hOCT3. Nature of the data set: Real-time uptake of fluorescent substrate ASP+ in YFP-hOCT3 HEK293 cells. It counts as cell-based. As to conditions: 3 µM ASP+.
Data set [11] addresses SERT (Mus musculus, UniProt Q60857). As to conditions: ethanol 3.4 nM up to 1 M, hippocampal homogenates.
Protocol: as §1, §2
Radioligand binding to SERT was performed on hippocampal homogenates according to the procedure of D’Amato et al.^19. […]
as §3
For data set [12], the target named is hNET (Homo sapiens, UniProt P23975).
hNET, sequence (P23975 whole entry): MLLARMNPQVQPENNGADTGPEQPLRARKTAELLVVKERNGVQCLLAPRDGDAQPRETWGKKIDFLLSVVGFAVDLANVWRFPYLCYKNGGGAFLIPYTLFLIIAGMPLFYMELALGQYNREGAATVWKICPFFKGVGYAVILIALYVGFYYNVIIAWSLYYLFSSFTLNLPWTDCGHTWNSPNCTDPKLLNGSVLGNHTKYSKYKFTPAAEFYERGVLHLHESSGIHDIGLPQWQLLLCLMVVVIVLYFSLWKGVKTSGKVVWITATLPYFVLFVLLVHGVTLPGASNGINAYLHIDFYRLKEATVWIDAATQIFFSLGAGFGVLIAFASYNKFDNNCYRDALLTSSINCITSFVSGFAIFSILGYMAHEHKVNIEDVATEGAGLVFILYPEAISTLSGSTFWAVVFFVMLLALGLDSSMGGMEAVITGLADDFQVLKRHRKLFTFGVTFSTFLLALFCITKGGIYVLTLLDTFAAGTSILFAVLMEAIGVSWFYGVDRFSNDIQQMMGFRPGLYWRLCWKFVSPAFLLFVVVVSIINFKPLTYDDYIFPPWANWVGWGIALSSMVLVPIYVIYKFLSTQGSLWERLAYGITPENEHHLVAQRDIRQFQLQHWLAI
The conditions of data set [13]: rats, systemic administration of 1 mg/kg of ethanol (i.p.); cited from earlier work.
Data set [14] deals with OCT3+/+ and OCT3-/- mice. Kind of data set: Conditioned place preference (CPP). As to conditions: ethanol 1 g/kg + cocaine […] i.p. Type of data set: in vivo.
Protocol: In the same procedure, sensitization of cocaine-induced locomotion (in the presence and absence of ethanol) was measured. Loss of righting reflex (LORR) was assessed as described previously [36].
For CPP and sensitization to the locomotor stimulant effects of these drugs, mice were injected i.p. with physiological saline, saline + EtOH (100 mg/kg), saline + cocaine (3.2 mg/kg), or EtOH (100 mg/kg) + cocaine (3.2 mg/kg) immediately prior to assay. […] For LORR behavioral assays, mice were injected i.p. with a sedative dose of EtOH, at 3.2 g/kg (base weight per kilogram body weight).
CPP. Conditioned place preference (CPP) in rodents, which is often used to model abuse-related drug effects, is shown by a preference for an environment previously paired with a drug compared with an environment previously paired with vehicle^31, 32. Mice were exposed to an unbiased, one-compartment place-conditioning procedure, with sessions conducted once per day (see^12, 13). […]
This analysis was followed with separate two-way ANOVAs to further probe sex*genotype and treatment*genotype interactions. […] There were no interaction or main effects of sex on sensitization, so male and female data were pooled for further analysis, in which effects of genotype and days were assessed separately for each drug treatment using two-way repeated measures ANOVA’s. […]
Data set [15] deals with T3, NET. As to conditions: ethanol 3.4 nM up to 1 M, hippocampal homogenates.
Protocol: as §1
Tissue Collection and Preparation: Mice were humanely euthanized by cervical dislocation and decapitated without anesthesia to collect fresh brain tissues without compromising transporter binding properties. Striatum from each mouse were placed in a round 50 ml polycarbonate tube (Nalge Nunc, Rochester, NY, USA) containing 30 mM sodium phosphate and 0.32 M sucrose for DAT binding as in Reith and Coffey^16. […] All tissues were homogenized at 26,000 RPM for 1 min with a Polytron tissue homogenizer (Brinkman Instruments, Westbury, NY, USA). […] The supernate was discarded, and the pellet re-suspended in 25 ml buffer on ice using a Potter Elvehjem 10 ml glass and teflon homogenizer. The homogenate was re-centrifuged for 10 min at 36,000 x g. […]
as §3

Molecules are shown by their SMILES.

T1 sequence (Q61327 whole entry): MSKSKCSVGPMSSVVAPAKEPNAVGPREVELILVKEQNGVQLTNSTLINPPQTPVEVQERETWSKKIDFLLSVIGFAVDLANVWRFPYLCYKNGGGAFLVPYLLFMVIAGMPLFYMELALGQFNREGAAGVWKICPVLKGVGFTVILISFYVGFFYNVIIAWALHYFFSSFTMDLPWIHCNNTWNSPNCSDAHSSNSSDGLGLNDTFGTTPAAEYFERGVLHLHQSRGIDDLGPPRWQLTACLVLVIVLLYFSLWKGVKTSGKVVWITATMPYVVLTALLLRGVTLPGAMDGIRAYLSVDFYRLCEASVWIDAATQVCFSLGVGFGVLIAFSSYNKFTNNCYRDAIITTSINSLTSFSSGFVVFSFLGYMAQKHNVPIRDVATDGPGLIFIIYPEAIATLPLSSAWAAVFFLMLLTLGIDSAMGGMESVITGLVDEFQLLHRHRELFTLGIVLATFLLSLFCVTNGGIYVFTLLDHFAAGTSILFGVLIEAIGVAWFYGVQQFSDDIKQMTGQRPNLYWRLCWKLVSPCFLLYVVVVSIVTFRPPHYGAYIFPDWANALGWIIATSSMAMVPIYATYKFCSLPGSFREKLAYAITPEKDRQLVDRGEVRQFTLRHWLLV
hDAT, sequence (Q01959 whole entry): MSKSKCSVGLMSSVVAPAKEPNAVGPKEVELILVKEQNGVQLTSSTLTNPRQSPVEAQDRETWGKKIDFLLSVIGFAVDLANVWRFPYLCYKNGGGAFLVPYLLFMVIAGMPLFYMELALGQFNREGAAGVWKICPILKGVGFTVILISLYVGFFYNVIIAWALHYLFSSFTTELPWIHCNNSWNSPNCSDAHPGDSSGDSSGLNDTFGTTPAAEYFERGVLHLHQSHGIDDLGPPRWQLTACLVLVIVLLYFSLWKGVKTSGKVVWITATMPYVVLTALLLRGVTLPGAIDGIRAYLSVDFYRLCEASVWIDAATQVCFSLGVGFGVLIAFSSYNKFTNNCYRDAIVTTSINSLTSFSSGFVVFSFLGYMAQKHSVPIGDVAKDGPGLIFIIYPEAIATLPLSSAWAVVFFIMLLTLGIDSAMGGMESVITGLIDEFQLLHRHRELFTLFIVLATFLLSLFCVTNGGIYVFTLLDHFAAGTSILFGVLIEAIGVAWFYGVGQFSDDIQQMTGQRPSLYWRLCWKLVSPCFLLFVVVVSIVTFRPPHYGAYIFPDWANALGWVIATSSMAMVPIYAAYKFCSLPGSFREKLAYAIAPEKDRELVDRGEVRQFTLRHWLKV
hSERT, sequence (P31645 whole entry): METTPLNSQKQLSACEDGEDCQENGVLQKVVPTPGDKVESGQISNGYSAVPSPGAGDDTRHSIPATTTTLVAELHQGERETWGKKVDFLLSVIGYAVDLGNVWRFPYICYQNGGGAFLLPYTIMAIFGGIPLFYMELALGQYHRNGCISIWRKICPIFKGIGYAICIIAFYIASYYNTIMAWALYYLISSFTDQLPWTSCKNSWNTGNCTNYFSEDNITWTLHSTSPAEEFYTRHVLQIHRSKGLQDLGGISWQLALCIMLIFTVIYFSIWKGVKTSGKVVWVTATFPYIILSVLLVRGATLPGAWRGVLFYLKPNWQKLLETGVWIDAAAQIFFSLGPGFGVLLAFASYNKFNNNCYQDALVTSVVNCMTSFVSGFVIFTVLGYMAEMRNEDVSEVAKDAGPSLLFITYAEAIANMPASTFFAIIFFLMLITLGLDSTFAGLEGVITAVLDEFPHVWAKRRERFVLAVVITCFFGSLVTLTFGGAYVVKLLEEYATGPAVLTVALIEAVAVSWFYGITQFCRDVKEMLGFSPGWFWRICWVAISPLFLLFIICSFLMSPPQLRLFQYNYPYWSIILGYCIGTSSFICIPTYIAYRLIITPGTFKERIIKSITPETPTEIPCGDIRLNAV
SERT, sequence (Q60857 whole entry): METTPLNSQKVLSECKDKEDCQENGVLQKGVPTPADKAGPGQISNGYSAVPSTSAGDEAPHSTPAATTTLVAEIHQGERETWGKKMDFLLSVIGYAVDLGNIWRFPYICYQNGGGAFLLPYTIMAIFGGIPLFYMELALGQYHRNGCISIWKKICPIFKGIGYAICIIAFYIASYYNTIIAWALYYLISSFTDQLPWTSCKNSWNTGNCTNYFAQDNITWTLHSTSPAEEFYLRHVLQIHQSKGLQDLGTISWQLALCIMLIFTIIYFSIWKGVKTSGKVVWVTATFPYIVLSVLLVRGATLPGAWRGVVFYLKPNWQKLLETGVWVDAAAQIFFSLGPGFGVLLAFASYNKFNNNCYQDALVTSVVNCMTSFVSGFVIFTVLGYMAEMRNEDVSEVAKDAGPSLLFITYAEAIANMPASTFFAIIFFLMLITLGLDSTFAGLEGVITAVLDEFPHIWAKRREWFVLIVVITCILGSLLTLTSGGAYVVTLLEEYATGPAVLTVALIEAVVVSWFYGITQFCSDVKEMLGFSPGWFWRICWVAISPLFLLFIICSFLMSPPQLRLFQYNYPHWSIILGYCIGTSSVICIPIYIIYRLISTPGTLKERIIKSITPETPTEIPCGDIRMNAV

`Fc1ccc(C(OCCN2CCN(CCCc3ccccc3)CC2)c2ccc(F)cc2)cc1` [GBR12909]: the Ki in data set [1] (2.7 nM [3H]WIN35,428, striatal homogenates, mean (95% CI), N = 3 mice, read-out: Ki for displacement of [3H]WIN35,428 binding to DAT) was found to be 0.001 µM.
Consider `C[n+]1ccc(-c2ccccc2)cc1` [[^3H]MPP^+, 1-methyl-4-phenylpyridinium], for which, in [2] (used to determine Ki values, read-out: Km for uptake in OCT3 over-expressing cells), the Michaelis constant (Km) was 1000 µM.
`CNCCC(Oc1ccccc1OC)c1ccccc1` (stereo not drawn) [[^3H]Nisoxetine]: the Kd in [3] was 0.0025 µM.
Turning to `COC(=O)[C@H]1[C@@H](c2ccc(F)cc2)C[C@@H]2CC[C@H]1N2C` [[^3H]WIN35,428], the Kd in [1] (saturation assays on striatum of 5 C57BL/6J mice, used to calculate Ki, read-out: Kd of hot ligand at DAT) is 0.0078 µM.
Take `COC(=O)[C@H]1[C@@H](OC(=O)c2ccccc2)C[C@@H]2CC[C@H]1N2C` [cocaine]: the “Locomotor sensitization, first vs. 4th session Mean Difference” value in data set [4] (OCT3+/+ mice) was -9.84. Besides, in data set [4] (OCT3-/- mice), the “Locomotor sensitization, first vs. 4th session Mean Difference” value is -31.91. Moreover, the “Activity at OCT3” value in data set [5] is listed as “does not have activity at OCT3”. Moreover, the “Block of APP+ uptake into hSERT HEK293 cells” value in data set [6] is listed as “blocked APP^+ uptake”. In addition, in [7], the “Block of fluorescent substrate uptake in hOCT3 HEK293 cells” value was “does not block fluorescent substrate uptake”. The “Block of APP+ uptake into hDAT HEK293 cells” value in data set [8] (10 µM cocaine) is recorded as “blocked APP^+ uptake”. In [9] (OCT3+/+ mice), the “EC50, half maximally effective amount to inhibit DA clearance (T80)” value is on record as 35 ± 9 pmol; the “Emax, maximal inhibition of DA clearance (percent increase in T80)” value is reported as 150 ± 13%; the “percent change in T20-60 value from baseline” value (shortened to “percent change in T20-60 value”) is listed as 140 ± 8 (16)**/^† percent; the “percent change in peak amplitude of DA signal from baseline” value (“percent change in peak amplitude” for short) is 109 ± 14 (16) percent. Also, the “Effect on DA clearance time (T80)” value in [9] (OCT3+/+ mice) is “inhibited DA clearance”. Also, in [9] (OCT3-/- mice), the “EC50, half maximally effective amount to inhibit DA clearance (T80)” value was 23 ± 16 pmol; the “Emax, maximal inhibition of DA clearance (percent increase in T80)” value was found to be 154 ± 15%; the “percent change in T20-60 value” value is recorded as 148 ± 14 (15) percent; the “percent change in peak amplitude” value was 106 ± 16 (15) percent. Moreover, the “Effect on DA clearance time (T80)” value in [9] (OCT3-/- mice) is given as “inhibited DA clearance”.
Consider `C[C@]12C[C@H](O)[C@H]3[C@@H](CCC4=CC(=O)CC[C@@]43C)[C@@H]1CC[C@@H]2C(=O)CO` [corticosterone], for which the “Block of ASP+ uptake” value in data set [10] (10 µM corticosterone) is “fully blocked uptake of ASP^+”.
Take `CCO` [ethanol]: the “Locomotor sensitization, first vs. 4th session Mean Difference” value in data set [4] (OCT3+/+ mice) was −12.01. Also, the “Sensitization of locomotor activity” value in data set [4] (ethanol alone, OCT3+/+ and OCT3-/- mice) is “no ethanol-induced sensitization”. The “Displacement of [3H]citalopram binding to SERT” value in data set [11] is given as “did not displace”. Besides, the “Inhibition of APP+ uptake into hNET HEK293 cells” value in data set [12] is on record as “only modestly inhibited uptake”. The “Inhibition of ASP+ uptake” value in data set [10] (30 mM ethanol, A.U.C. T80-150 s) is recorded as ~ 50%. Also, in data set [10] (100 mM ethanol), the “Block of ASP+ uptake” value is “fully blocked uptake of ASP^+”. Besides, in data set [13], the “Dialysate ethanol levels in the nucleus accumbens” value is reported as “approximately 6 mM”. The “Displacement of [3H]WIN35,428 binding to DAT” value in data set [1] (ethanol 3.4 nM up to 1 M, striatal homogenates) is given as “did not displace”. Further, the “Inhibition of APP+ uptake into hDAT HEK293 cells” value in data set [8] (highest ethanol concentration tested (100 mM)) was “only modestly inhibited uptake”. This compound also displayed an inhibitory constant (Ki) in data set [2] (hOCT3 HEK293 cells, N = 5 replicate assays in triplicate) of 4200 ± 200 µM. The “Potentiation of CPP for cocaine by ethanol” value in data set [14] is listed as “did not potentiate CPP for cocaine”. Moreover, in [9] (OCT3+/+ mice), the “percent change in T20-60 value” value is 123 ± 8 (14) percent, the “percent change in peak amplitude” value was 80 ± 8 (14) percent and the “Effect on DA clearance time (T80)” value is recorded as “increased T80 DA clearance time”. Besides, in data set [9] (OCT3-/- mice), the “percent change in T20-60 value” value was 100 ± 6 (17)^###/$$ percent, the “percent change in peak amplitude” value is recorded as 70 ± 8 (17) percent and the “Effect on DA clearance time (T80)” value was “did not inhibit DA clearance”. Also, the “Displacement of [3H]nisoxetine binding to NET” value in [15] is on record as “did not displace”.
